Literature values, collected in patent publication US11053254B2, “Crystalline forms of mitomycin C for treatment of cancer” (TRANSGENEX NANOBIOTECH, INC., priority 2018, dated 2021).

Conditions: acidic solutions with pH<6

CO[C@@]12[C@H](COC(N)=O)C3=C(C(=O)C(C)=C(N)C3=O)N1C[C@@H]1N[C@@H]12 [Mitomycin C, [(4S,6S,7R,8S)-11-amino-7-methoxy-12-methyl-10,13-dioxo-2,5-diazatetracyclo[7.4.0.0^2,7.0^4,6]trideca-1(9),11-dien-8-yl]methyl carbamate]
degradation in acidic solutions: rapid degradation
